# Values quoted from earlier work as cited in US8685425B2, “Microencapsulation product and process” (priority 2004, dated 2014).
smiles,measurement,value
"CCN(CC)C(=O)c1cccc(C)c1 [DEET, N,N-diethyl-m-toluamide]",solubility of DEET in water,around 1%
